Source: patent US7923461B2, “TNF-α production inhibitors” (Santen Pharmaceutical Co., Ltd., priority 2000, dated 2011)

What was measured:
TNF-α production = test: Inhibitory effects on TNF-α production induced by lipopolysaccharide (LPS) stimulation, in vivo test; parameters: species or system rat; settings: female rats, plasma TNF-α (ELISA) two hours after LPS; for inhibition in vivo at 10 mg/kg / inhibition in vivo at 3 mg/kg: Rattus norvegicus, 2 h, read-out: Inhibition rate (%) of TNF-α production; for inhibition in vivo at 10 mg/kg: oral administration of 10 mg/kg immediately after LPS to footpad
Protocol: Inhibitory effects on TNF-α production induced by lipopolysaccharide (LPS) stimulation were studied by in vivo tests according to the method of Tsuji et al. (Inflamm res. 46 (1997) 193-198).
Female rats (five per group), body weight of about 200 g, about eight weeks old, were used as test animals. LPS from Salmonella was dissolved in physiological saline to prepare an LPS solution (1 mg/ml). Each test substance was dissolved or uniformly suspended in a 1% methylcellulose solution to give test substance-preparation liquids.
The above-mentioned LPS solution (0.5 ml/kg) was administered to a footpad of the rat. Immediately after the LPS administration, the test substance-preparation liquid (containing 10 mg/kg or 3 mg/kg test substance) was orally administered. Two hours after the LPS administration, blood was collected from abdominal aorta and was centrifuged at 4° C. and 3000 rpm for ten minutes. TNF-α levels in the obtained plasma were measured with a rat TNF-α-specific ELISA kit. TNF-α was not observed in the plasma with respect to an LPS-non-administered group (control).
Inhibition rates of TNF-α production of the test substances were determined by the following equation. Inhibition rate (%)=[(A−B)/A]×100 A: TNF-α level in plasma of test substance-nonadministered group B: TNF-α level in plasma of test substance-administered group (Results)

[1] = oral administration of 3 mg/kg immediately after LPS to footpad

| SMILES | melting point [°C] | inhibition in vivo at 10 mg/kg (TNF-α production) [%] | inhibition in vivo at 3 mg/kg (TNF-α production; [1]) [%] | Inhibition rate (%) of TNF-α production (TNF-α production; [1]) [%] |
| --- | --- | --- | --- | --- |
| O=C(NCCCc1ccncc1)N(CCC12CC3CC(CC(C3)C1)C2)Cc1ccccc1 [Compound No. 1-43, 1-[2-(1-Adamantyl)ethyl]-1-benzyl-3-[3-(4-pyridyl)propyl]urea] | 130.5 to 135 | 67.6 |  |  |
| CCCCCN(CCC12CC3CC(CC(C3)C1)C2)C(=O)NC(C)CCc1ccncc1 (centres unmarked) [Compound No. 1-137, 1-[2-(1-Adamantyl)ethyl]-3-[1-methyl-3-(4-pyridyl)propyl]-1-pentylurea] | 128.5 to 129 |  | 82.1 |  |
| CC(CNC(=O)N(CCN(C)C(=O)OC(C)(C)C)CCC12CC3CC(CC(C3)C1)C2)Cc1ccncc1 (single isomer, unassigned; (+)) [Compound No. 1-139, (+)-1-[2-(1-Adamantyl)ethyl]-1-[2-[N-(t-butoxycarbonyl)-N-methylamino]ethyl]-3-[2-methyl-3-(4-pyridyl)propyl]urea] | 122.7 to 123.7 | 94.1 |  |  |
| O=C(NCCCc1ccncc1)N(CCC12CC3CC(CC(C3)C1)C2)C1CCCC1 [Compound No. 1-70, 1-[2-(1-Adamantyl)ethyl]-1-cyclopentyl-3-[3-(4-pyridyl)propyl]urea] | 135.5 to 137.5 | 87.9 |  |  |
| O=C(NCCCc1ccncc1)N(CC=Cc1ccccc1)CCC12CC3CC(CC(C3)C1)C2 [Compound No. 1-34, 1-[2-(1-Adamantyl)ethyl]-1-cinnamyl-3-[3-(4-pyridyl)propyl]urea] | 130 to 134.5 | 70.8 |  |  |
| CCCCCN(CCC12CC3CC(CC(C3)C1)C2)C(=O)NCCCc1cccnc1 [Compound No. 1-84, 1-[2-(1-Adamantyl)ethyl]-1-pentyl-3-[3-(3-pyridyl)propyl]urea] | 99.9 to 105.2 |  | 35.5 |  |
| CN(CCN(CCC12CC3CC(CC(C3)C1)C2)C(=O)CCCCc1ccncc1)C(=O)CC(C)(C)C [Compound No. 10-17, 5-(4-Pyridyl)valeric acid N-[2-(1-adamantyl)ethyl]-N-[2-[N′-(3,3-dimethylbutyryl)-N′-methylamino]ethyl]amide] |  |  |  | 53.8 |
| CCCCCCCCCCN(CCC12CC3CC(CC(C3)C1)C2)C(=O)NCCCc1ccncc1 [Compound No. 1-32, 1-[2-(1-Adamantyl)ethyl]-1-decyl-3-[3-(4-pyridyl)propyl]urea] | 75 to 76 | 62.4 |  |  |
| CCCCN(CCCC)C(=O)NCCCc1ccncc1 [Compound No. 1-10, 1,1-Dibutyl-3-[3-(4-pyridyl)propyl]urea] |  |  | 63 |  |
| CCCCCN(CCC12CC3CC(CC(C3)C1)C2)C(=O)NC/C=C\c1ccncc1 [Compound No. 1-111, (Z)-1-[2-(1-Adamantyl)ethyl]-1-pentyl-3-[3-(4-pyridyl)-2-propenyl]urea] |  |  | 85.1 |  |
| CCCN(CCC12CC3CC(CC(C3)C1)C2)C(=O)CCCCc1ccncc1 [Compound No. 2-1, 5-(4-Pyridyl)valeric acid N-[2-(1-adamantyl)ethyl]-N-propylamide] |  | 91.5 |  |  |
| CCCCCN(CCC12CC3CC(CC(C3)C1)C2)C(=O)NCCCc1cc[n+]([O-])cc1 [Compound No. 16-1, 4-[3-[3-[2-(1-Adamantyl)ethyl]-3-pentylureido]propyl]pyridine N-oxide] |  |  | 74.3 |  |
| CN(CCN(CCC12CC3CC(CC(C3)C1)C2)C(=O)NCCCc1ccncc1)C(=O)OC(C)(C)C [Compound No. 1-26, 1-[2-(1-Adamantyl)ethyl]-1-[2-[N-(t-butoxycarbonyl)-N-methylamino]ethyl]-3-[3-(4-pyridyl)propyl]urea] |  | 95.5 |  |  |

Second part, led by results:

| melting point [°C] | SMILES | inhibition in vivo at 10 mg/kg (TNF-α production) [%] | inhibition in vivo at 3 mg/kg (TNF-α production; [1]) [%] | Inhibition rate (%) of TNF-α production (TNF-α production; [1]) [%] |
| --- | --- | --- | --- | --- |
| 132 to 134 | CC(C)N(CCC12CC3CC(CC(C3)C1)C2)C(=O)NCCCc1ccncc1 [Compound No. 1-68, 1-[2-(1-Adamantyl)ethyl]-1-isopropyl-3-[3-(4-pyridyl)propyl]urea] | 79 |  |  |
| 123 to 125 | O=C(NCCCc1ccncc1)N(CCC12CC3CC(CC(C3)C1)C2)CC1CC1 [Compound No. 1-22, 1-[2-(1-Adamantyl)ethyl]-1-cyclopropylmethyl-3-[3-(4-pyridyl)propyl]urea] | 87 |  |  |
| 47 to 50 | CCCCCNC(=O)N(CCCc1ccncc1)CCC12CC3CC(CC(C3)C1)C2 [Compound No. 1-66, 1-[2-(1-Adamantyl)ethyl]-3-pentyl-1-[3-(4-pyridyl)propyl]urea] | 79.4 |  |  |
| 142.5 to 144.5 | O=C(NCCCc1ccncc1)N(CCC12CC3CC(CC(C3)C1)C2)Cc1cccs1 [Compound No. 1-27, 1-[2-(1-Adamantyl)ethyl]-3-[3-(4-pyridyl)propyl]-1-(2-thienyl)methylurea] | 81.3 |  |  |
| 89.5 to 93.5 | CC=CCN(CCC12CC3CC(CC(C3)C1)C2)C(=O)NCCCc1ccncc1 [Compound No. 1-25, 1-[2-(1-Adamantyl)ethyl]1-(2-butenyl)-3-[3-(4-pyridyl)propyl]urea] | 89 |  |  |
| 107.5 to 109 | O=C(NCCCc1ccncc1)N(CCC(F)(F)F)CCC12CC3CC(CC(C3)C1)C2 [Compound No. 1-24, 1-[2-(1-Adamantyl)ethyl]-3-[3-(4-pyridyl)propyl]-1-(3,3,33-trifluoropropyl)urea] | 95.8 |  |  |
| 93 to 96 | CC(C)=CCN(CCC12CC3CC(CC(C3)C1)C2)C(=O)NCCCc1ccncc1 [Compound No. 1-31, 1-[2-(1-Adamantyl)ethyl]-1-(3-methyl-2-butenyl)-3-[3-(4-pyridyl)propyl]urea] | 92.6 |  |  |
| 101.5 to 104.5 | COCCN(CCC12CC3CC(CC(C3)C1)C2)C(=O)NCCCc1ccncc1 [Compound No. 1-18, 1-[2-(1-Adamantyl)ethyl]-1-(2-methoxyethyl)-3-[3-(4-pyridyl)propyl]urea] | 78.9 |  |  |
| 128 to 130 | O=C(NCCCc1ccncc1)N(CCC12CC3CC(CC(C3)C1)C2)Cc1ccco1 [Compound No. 1-42, 1-[2-(1-Adamantyl)ethyl]-1-furfuryl-3-[3-(4-pyridyl)propyl]urea] | 86.7 |  |  |
